Laboratory results taken from US7476671B2, “2-amino-imidazo[4,5-d]pyridazin-4-ones, their preparation and their use as pharmaceutical compositions” (Boehringer Ingelheim International GmbH, priority 2004, dated 2009).

What was measured:
DPP-IV = target: T1, DPP-IV (Homo sapiens, UniProt P27487); assay: DPP-IV assay with extract of the human colon carcinoma cell line Caco-2 as DPP IV source, AFC substrate, fluorescence; assay type: biochemical; settings: solubilised Caco-2 protein, substrate 100 μM, 60 minutes at ambient temperature, 11-point curves; read-out: DPP IV inhibition IC50
T1 construct: an extract of the human colon carcinoma cell line Caco-2 is used as the DPP IV source; endogenous in cells; host or cells: Caco-2 (human colon carcinoma), differentiated to induce DPP-IV expression; Nonidet-P40 solubilised extract
Procedure: The differentiation of the cells in order to induce the DPP-IV expression was carried out in accordance with the description by Reiher et al. in an article entitled “Increased expression of intestinal cell line Caco-2”, which appeared in Proc. Natl. Acad. Sci. Vol. 90, pp. 5757-5761 (1993).
The cell extract was obtained from cells solubilised in a buffer (10 mM Tris HCl, 0.15 M NaCl, 0.04 t.i.u. aprotinin, 0.5% Nonidet-P40, pH 8.0) by centrifugation at 35,000 g for 30 minutes at 4° C. (to remove cell debris).
The DPP-IV assay was carried out as follows:
50 μl of substrate solution (AFC; AFC is amido-4-trifluoromethylcoumarin), final concentration 100 μM, were placed in black microtitre plates. 20 μl of assay buffer (final concentrations 50 mM Tris HCl, pH 7.8, 50 mM NaCl, 1% DMSO) was pipetted in. The reaction was started by the addition of 30 μl of solubilised Caco-2 protein (final concentration 0.14 μg of protein per well). The test substances under investigation were typically added prediluted to 20 μl, while the volume of assay buffer was then reduced accordingly. The reaction was carried out at ambient temperature, the incubation period was 60 minutes. Then the fluorescence was measured in a Victor 1420 Multilabel Counter, with the excitation wavelength at 405 nm and the emission wavelength at 535 nm. Dummy values (corresponding to 0% activity) were obtained in mixtures with no Caco-2 protein (volume replaced by assay buffer), control values (corresponding to 100% activity) were obtained in mixtures without any added substance. The potencies of the test substances in question, expressed as IC50 values, were calculated from dosage/activity curves consisting of 11 measured points in each case.

[1] = Tolerability after oral administration; assay type: in vivo; settings: oral administration of 10 mg/kg

T1 sequence (P27487 whole entry): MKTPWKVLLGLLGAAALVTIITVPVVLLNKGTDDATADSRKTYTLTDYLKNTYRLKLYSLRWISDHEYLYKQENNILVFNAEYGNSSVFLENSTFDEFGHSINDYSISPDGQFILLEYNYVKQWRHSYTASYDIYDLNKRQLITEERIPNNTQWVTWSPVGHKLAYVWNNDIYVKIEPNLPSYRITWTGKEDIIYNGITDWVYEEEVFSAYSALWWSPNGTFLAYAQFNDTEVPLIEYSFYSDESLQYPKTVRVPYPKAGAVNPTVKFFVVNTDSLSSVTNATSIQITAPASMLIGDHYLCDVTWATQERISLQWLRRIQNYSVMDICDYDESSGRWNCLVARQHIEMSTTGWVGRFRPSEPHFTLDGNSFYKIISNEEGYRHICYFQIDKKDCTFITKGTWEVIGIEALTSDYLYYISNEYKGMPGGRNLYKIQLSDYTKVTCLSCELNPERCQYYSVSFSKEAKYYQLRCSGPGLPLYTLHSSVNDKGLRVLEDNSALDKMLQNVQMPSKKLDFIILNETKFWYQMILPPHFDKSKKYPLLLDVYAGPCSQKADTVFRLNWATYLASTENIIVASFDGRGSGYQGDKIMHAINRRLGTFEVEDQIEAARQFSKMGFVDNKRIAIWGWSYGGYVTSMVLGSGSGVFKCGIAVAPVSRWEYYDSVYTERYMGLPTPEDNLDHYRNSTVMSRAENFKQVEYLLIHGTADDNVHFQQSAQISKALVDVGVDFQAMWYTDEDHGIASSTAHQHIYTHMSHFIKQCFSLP

| Structure (SMILES) | IC50 (DPP-IV) [nM] | toxic side effects / tolerability [1] |
| --- | --- | --- |
| CC#CCn1c(N(C)CCN)nc2ccn(Cc3nc(C)cc4ccccc34)c(=O)c21 [1(2), 2-[N-(2-aminoethyl)-N-methyl-amino]-3-(2-butyn-1-yl)-5-[(3-methyl-isoquinolin-1-yl)methyl]-3,5-dihydro-imidazo[4,5-c]pyridin-4-one] | 34 | – |
| CC#CCn1c(N(C)CC(C)(C)N)nc2cnn(Cc3ccccc3C#N)c(=O)c21 [2(1), 2-[N-(2-amino-2-methyl-propyl)-N-methyl-amino]-3-(2-butyn-1-yl)-5-(2-cyanophenyl-methyl)-3,5-dihydro-imidazo[4,5-d]pyridazin-4-one] | 336 | – |
| CC#CCn1c(N(C)C[C@H](C)N)nc2cnn(Cc3ccccc3C#N)c(=O)c21 [Example 2, (S)-2-[N-(2-amino-propyl)-N-methyl-amino]-3-(2-butyn-1-yl)-5-(2-cyanophenylmethyl)-3,5-dihydro-imidazo[4,5-d]pyridazin-4-one] | 76 | – |

Now those with a lower IC50 (DPP-IV), led by results:

| IC50 (DPP-IV) [nM] | Structure (SMILES) | toxic side effects / tolerability [1] |
| --- | --- | --- |
| 10 | CC#CCn1c(N(C)CCN)nc2cnn(Cc3nc(C)cc4ccccc34)c(=O)c21 [1(1), 2-[N-(2-aminoethyl)-N-methyl-amino]-3-(2-butyn-1-yl)-5-[(3-methyl-isoquinolin-1-yl)methyl]-3,5-dihydro-imidazo[4,5-d]pyridazin-4-one] | – |
| 1 | CC#CCn1c(N(C)CCN)nc2cnn(Cc3nc(C)c4ccccc4n3)c(=O)c21 [Example 1, 2-[N-(2-aminoethyl)-N-methyl-amino]-3-(2-butyn-1-yl)-5-[(4-methyl-quinazolin-2-yl)methyl]-3,5-dihydro-imidazo[4,5-d]pyridazin-4-one] | no toxic side effects |
| 2 | CC#CCn1c(N(C)C[C@H](C)N)nc2cnn(Cc3nc(C)c4ccccc4n3)c(=O)c21 [Example 3, (S)-2-[N-(2-aminopropyl)-N-methyl-amino]-3-(2-butyn-1-yl)-5-[(4-methyl-quinazolin-2-yl)methyl]-3,5-dihydro-imidazo[4,5-d]pyridazin-4-one] | – |
